In paper PMC12794274, “Therapeutic potential of Sheng-Xian-Tang in doxorubicin-induced chronic heart failure by regulation of phenylalanine metabolism disruption” (Chinese Medicine, 2026):
pKd: −log10 of the molar value. “And” between values parts separate entries of the source, which are not always exact repeats. Equal entries are not always repeated.

Columns and labels:
[1] = system: DOX-induced chronic heart failure (CHF) rat model; test: Echocardiography (LVEF%, LVFS%) in DOX-induced CHF rats; assay type: in vivo
Experimental: Experiment I, 48 rats were randomly divided into six groups: (1) the CON group; (2) the DOX group; (3) the DOX + enalapril (ENP, positive control, 1.8 mg/kg) group; (4) the DOX + SXT at low dose group (4 g/kg); (5) the DOX + SXT at middle dose group (8 g/kg); and […] the DOX + SXT at high dose group (16 g/kg). Except those rats in the CON group, the remaining rats received DOX at a 2.5 mg/kg per injection to a cumulative dose of 15 mg/kg. The dose of SXT for the low-dose group was set at 4 g/kg, based on the minimum human clinical daily dose (48.5 g, Table S2) converted to an equivalent rat dose using body surface area normalization (48.5 g/70 kg × 6.3 ≈ 4.4 g/kg, rounded to 4 g/kg). To evaluate a clear dose–response relationship, the medium and high doses were established at 8 g/kg and 16 g/kg, respectively, corresponding to 2 fold and 4 fold the low dose. This gradient dosing strategy is consistent with the Technical Guidelines for Pharmacodynamic Studies of Traditional Chinese Medicine and the Technical Guidelines for General Pharmacology Studies of Traditional Chinese Medicine and Natural Drugs, and is further supported by our previous study on the effective dose range of SXT in a rat model of doxorubicin-induced chronic heart failure. Heart function was monitored by echocardiography analysis at day 39, and the CHF model was considered to be successfully established when the left ventricular ejection fraction (LVEF%) values were reduced to 50%. Urinary samples were collected at five time points (0, 10, 20, 30, and 39 d), while fecal samples were collected before the rats were euthanized. Subsequently, the rats were anesthetized, and blood samples and heart and liver tissues were collected. All bio-samples were stored at − 80 °C until analysis.
Experiment II was conducted to specifically confirm the exacerbated cardiac abnormality of phenylalanine in the DOX-induced CHF rats. […] Heart function was detected as in the experiment I.
Echocardiographic (ECG) measurements were performed using M-mode tracings and continuous Doppler with a Vevo 2100 system (Visual Sonics, Toronto, ON, Canada). Rats were anesthetized with isoflurane prior to imaging. Cardiac function indices including left ventricular ejection fraction (LVEF%) and left ventricular fractional shortening (LVFS%) were measured and recorded.

[2] = system: DOX-induced CHF rats; test: Serum biochemical parameters (BNP, CK, LDH, ALT, AST) by ELISA kits; assay type: in vivo, rat
Experimental: (§1) Serum biochemical parameters including brain natriuretic peptide (BNP), creatine kinase (CK), lactate dehydrogenase (LDH), alanine aminotransferase (ALT), and aspartate aminotransferase (AST) were measured using commercial ELISA kits (Nanjing Jiancheng Bioengineering Institute, Nanjing, China) according to the manufacturer's instructions. Superoxide dismutase (SOD), and malondialdehyde (MDA) levels in liver and heart tissues were measured using assay kits from […] Biotechnology (Changsha, China). Phenylalanine and tyrosine concentrations in the cell were determined using an ELISA kit from Abmart (Shanghai, China).

[3] = system: cardiac tissues of DOX-induced CHF rats; test: Heart histopathology (H&E, Masson) and TUNEL apoptosis detection; assay type: in vivo, rat
Experimental: Cardiac tissues were fixed in 4% paraformaldehyde, embedded in paraffin, and sectioned at 4–5 μm thickness. Hematoxylin and eosin (H&E) staining was performed to assess histopathological changes, while Masson’s trichrome staining was used to evaluate cardiac fibrosis. Apoptosis in cardiac tissues was detected using a TUNEL assay kit (C1088, Beyotime, Shanghai, China).

[4] = Rat body weight; assay type: in vivo; conditions: CHF rats, treatment vs DOX group, experiment I
Experimental: Experiment I, 48 rats were randomly divided into six groups: (1) the CON group; (2) the DOX group; (3) the DOX + enalapril (ENP, positive control, 1.8 mg/kg) group; (4) the DOX + SXT at low dose group (4 g/kg); (5) the DOX + SXT at middle dose group (8 g/kg); and […] the DOX + SXT at high dose group (16 g/kg). Except those rats in the CON group, the remaining rats received DOX at a 2.5 mg/kg per injection to a cumulative dose of 15 mg/kg. The dose of SXT for the low-dose group was set at 4 g/kg, based on the minimum human clinical daily dose (48.5 g, Table S2) converted to an equivalent rat dose using body surface area normalization (48.5 g/70 kg × 6.3 ≈ 4.4 g/kg, rounded to 4 g/kg). To evaluate a clear dose–response relationship, the medium and high doses were established at 8 g/kg and 16 g/kg, respectively, corresponding to 2 fold and 4 fold the low dose. […] Heart function was monitored by echocardiography analysis at day 39, and the CHF model was considered to be successfully established when the left ventricular ejection fraction (LVEF%) values were reduced to 50%. […]

[5] = system: PAH activity in AML12 cells; assay type: cell-based
Experimental: Serum biochemical parameters including brain natriuretic peptide (BNP), creatine kinase (CK), lactate dehydrogenase (LDH), alanine aminotransferase (ALT), and aspartate aminotransferase (AST) were measured using commercial ELISA kits (Nanjing Jiancheng Bioengineering Institute, Nanjing, China) according to the manufacturer’s instructions. Superoxide dismutase (SOD), and malondialdehyde (MDA) levels in liver and heart tissues were measured using assay kits from Aifang Biotechnology (Changsha, China). Phenylalanine and tyrosine concentrations in the cell were determined using an ELISA kit from Abmart (Shanghai, China).
(§2) Mouse hepatocellular cell lines (AML12), purchased from the Shanghai Cell Bank of Chinese Academy of Sciences (Shanghai, China), were cultured in Dulbecco’s Modified Eagle Medium (DMEM) supplemented with 10% fetal bovine serum (FBS) and 2 mM L-glutamine and 1% pyruvate and maintained at 37 °C in a […], 5% CO2 incubator. Cells were seeded at a density of 5 × 10^5 cells/well in 6-well plates. […] Cells’ survival rate was detected by Cell Counting Kit-8 (CCK8) Reagents (Thermo Scientific, Singapore).

[6] = system: AML12 cells; test: AML12 cell viability (CCK8); assay type: cell-based
Experimental: as §2

[7] = target: Phenylalanine hydroxylase (PAH) protein (Homo sapiens, UniProt P00439); test: Surface Plasmon Resonance (SPR) analysis, Biacore T200; assay type: binding; conditions: PAH immobilized on CM5 chip, read-out: dissociation constant (Kd)
Experimental: SPR assays were conducted using a Biacore T200 system (GE Healthcare Life Sciences, USA). Phenylalanine hydroxylase (PAH) protein was immobilized on CM5 sensor chips using an amine-coupling kit (BR100050, GE Healthcare) following standard procedures. […] Samples were injected over reference and PAH-immobilized flow cells at a flow rate of 30 μL/min, with 120 s contact time and 120 s dissociation time. Kinetic parameters were calculated using Biacore T200 evaluation software.

[8] = target: T1, PAH protein in AML12 cells (Mus musculus, UniProt P16331); test: Cellular Thermal Shift Assay (CETSA); assay type: cell-based; conditions: neomangiferin 10 μM, 24 h, 37-72 °C, vs control group
T1 construct: endogenous in cells; host or cells: AML12 mouse hepatocytes
T1 sequence (P16331 1-453): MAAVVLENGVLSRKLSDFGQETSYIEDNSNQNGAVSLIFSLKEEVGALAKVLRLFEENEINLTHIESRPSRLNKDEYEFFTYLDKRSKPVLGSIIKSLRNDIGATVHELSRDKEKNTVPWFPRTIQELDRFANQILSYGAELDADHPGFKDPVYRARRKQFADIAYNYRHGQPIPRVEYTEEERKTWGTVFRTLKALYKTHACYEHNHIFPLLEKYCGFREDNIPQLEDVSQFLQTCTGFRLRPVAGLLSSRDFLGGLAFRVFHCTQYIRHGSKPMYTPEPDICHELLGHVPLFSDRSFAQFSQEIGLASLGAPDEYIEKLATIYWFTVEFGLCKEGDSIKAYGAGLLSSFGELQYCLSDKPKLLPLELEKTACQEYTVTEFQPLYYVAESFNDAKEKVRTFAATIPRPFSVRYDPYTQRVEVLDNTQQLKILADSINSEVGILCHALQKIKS
Experimental: AML12 cells (5 × 10^5 cells/well) in 6-well plates were divided into two groups, with 8 wells in each group. […] After 24 h, 8 samples of cells from each of the two groups were incubated at specific temperatures (37, 42, 47, 52, 57, 62, 67, and 72 °C) for 3 min and each sample was performed for western blotting analysis.

[9] = system: AML12 cells; assay type: cell-based, mouse; conditions: AML12 cells, dose-dependent
Experimental: as §2

[10] = system: phenylalanine hydroxylase (PAH); test: PAH expression in liver and heart (western blotting, immunofluorescence); assay type: in vivo, rat; conditions: experiment II; DOX vs CON, co-treatments vs DOX
Experimental: Immunofluorescence staining was performed on tissue sections to detect phenylalanine hydroxylase (PAH), prostaglandin-endoperoxide synthase 2 (PTGS2), and reactive oxygen species (ROS). Primary antibodies against PAH and PTGS2 were used, while ROS was detected using the DCFH-DA probe. Nuclei were counterstained with DAPI. Images were captured using a fluorescence microscope.
Protein was extracted from liver or heart tissue samples (30 mg) using lysis buffer. Total protein concentration was determined using a BCA protein assay kit (Thermo Fisher Scientific, USA). Equal amounts of protein from each sample were separated on 10–12% SDS-PAGE gels and transferred to PVDF membranes. Membranes were blocked with quick blocking buffer for 30 min, then incubated with anti-PAH primary antibody (1:1000 dilution) overnight at 4 °C. After washing, membranes were incubated with a secondary antibody for 1 h at 37 °C. Protein bands were visualized using an Odyssey infrared imaging system (JS-1070, Shanghai Peiqing Science & Technology Co., Ltd, China). Band intensities were quantified using ImageJ software.

[11] = system: heart tissues; test: Transmission electron microscopy of heart tissue; assay type: in vivo, rat; conditions: experiment II; DOX alone, co-treatments vs DOX
Experimental: Freshly excised heart tissues were immediately fixed in 2.5% glutaraldehyde at 4 °C overnight. After washing with 0.1 M cacodylate trihydrate buffer, samples were post-fixed with 1% osmium tetroxide for 1 h. Tissues were then dehydrated through a graded ethanol series, incubated in acetone, and embedded in epoxy resin. Ultrathin sections were mounted on copper grids and imaged using a Hitachi HT7800 transmission electron microscope (Tokyo, Japan).

[12] = system: DOX-induced CHF rats; test: Oxidative stress in heart and liver tissue (SOD, MDA, ROS, PTGS2); assay type: in vivo, rat; conditions: experiment II
Experimental: as §1, with “Immunofluorescence staining was performed on tissue sections to detect phenylalanine hydroxylase (PAH), prostaglandin-endoperoxide synthase 2 (PTGS2), and reactive oxygen species (ROS). Primary antibodies against PAH and PTGS2 were used, while ROS was detected using the DCFH-DA probe. Nuclei were counterstained with DAPI. Images were captured using a fluorescence microscope. Serum” for “Serum”

[13] = system: H9C2 cells; test: Effect of phenylalanine on doxorubicin-induced H9C2 cells; assay type: cell-based; conditions: DOX 1 µM + Phe 18.5 µM, 24 h
Experimental: H9C2 cells were seeded in 96-well plates at a density of 5 × 10⁴ cells per well (in 100 µL medium) and allowed to adhere for 12 h. The cells were then treated for 24 h with either DOX (1 µM) alone or DOX (1 µM) in combination with Phe (18.5 µM; a concentration derived from the dosing conversion ratio used in prior rat experiments). An untreated group served as the control. Cell viability was determined by measuring the optical density at 450 nm using a microplate reader. The levels of CK, LDH, SOD, and MDA were quantified using commercial assay kits.

[14] = system: phenylalanine metabolism; test: Phenylalanine and tyrosine levels in rat serum, liver and heart tissues (LC/MS); assay type: in vivo
Experimental: Phenylalanine and tyrosine in the different rat bio-samples were analyzed by LC/MS using an Agilent 1290 Ultra high-performance liquid chromatography (UHPLC) and an Agilent 6460 triple-quadrupole tandem mass spectrometer (QQQ-MS) (Agilent Inc, USA). Data were acquired by using an Agilent Zorbax SB-C18 column (3.0 × 150 mm, 5 μm) as described previously.

[15] = DOX + phenylalanine vs DOX group
[16] = experiment II, co-treatment vs DOX group

Phenylalanine hydroxylase (PAH) protein, sequence (P00439 whole entry): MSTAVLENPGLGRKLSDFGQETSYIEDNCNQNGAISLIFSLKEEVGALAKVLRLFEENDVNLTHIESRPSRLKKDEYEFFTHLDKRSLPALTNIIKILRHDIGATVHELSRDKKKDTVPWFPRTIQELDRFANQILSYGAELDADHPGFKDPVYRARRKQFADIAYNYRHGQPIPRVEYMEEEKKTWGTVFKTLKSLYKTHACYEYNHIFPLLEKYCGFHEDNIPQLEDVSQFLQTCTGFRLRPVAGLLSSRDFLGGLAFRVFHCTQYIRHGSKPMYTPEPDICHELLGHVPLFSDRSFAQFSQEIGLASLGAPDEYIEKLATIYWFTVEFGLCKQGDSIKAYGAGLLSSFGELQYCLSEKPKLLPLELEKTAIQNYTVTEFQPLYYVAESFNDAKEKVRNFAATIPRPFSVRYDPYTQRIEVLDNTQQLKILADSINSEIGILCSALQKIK

Compound: CCOC(=O)[C@H](CCc1ccccc1)N[C@@H](C)C(=O)N1CCC[C@H]1C(=O)O [ENP, Enalapril]
- LVEF and LVFS ([1]; DOX + ENP 1.8 mg/kg vs DOX group, p < 0.001): significantly higher
- serum ALT and AST levels ([2]; treated groups vs DOX group, experiment I): markedly reduced
- TUNEL-positive cardiomyocytes ([3]; treated groups vs DOX group): reduction
- body weight [4]: partially restored

Compound: O=c1c2cc(O[C@@H]3O[C@H](CO)[C@@H](O)[C@H](O)[C@H]3O)c(O)cc2oc2cc(O)c([C@@H]3O[C@H](CO)[C@@H](O)[C@H](O)[C@H]3O)c(O)c12 [Neomangiferin]
- PAH activity (enzyme activity assay) [5]: significantly increase
- phenylalanine levels in AML12 cells increased by DOX ([5]; BH4 10 μM, timosaponin B-II, neomangiferin, anemarrhenasaponin I 5, 10, 20 μM, timosaponin AIII 0.1, 0.2, 0.5 μM): significantly reduce
- non-cytoxic concentration [6]: 5 to 20 µM
- DOX-induced AML12 cell viability ([6]; DOX 1 µM, 24 h, three concentrations of compound): alleviated
- pKd [7]: 5.24 and > 5.00
- thermal stability of PAH protein (CETSA) [8]: better thermal stability
- DOX-induced oxidative stress (SOD, MDA) [9]: alleviated

Compound: N[C@@H](Cc1ccccc1)C(=O)O [phenylalanine]
- PAH expression in heart tissue [10]: further exacerbated
- PAH expression in liver tissue [10]: further exacerbated
- mitochondrial ultrastructure of heart (electron microscopy) [11]: more pronounced
- hepatic and cardiac MDA [12, 15]: marked MDA elevation
- hepatic and cardiac SOD activity [12, 15]: pronounced suppression
- ROS production and PTGS2 expression in the heart ([12]; co-treatment with DOX): upregulating
- DOX-induced cardiotoxicity in H9C2 cells (cell viability, SOD, CK, LDH, MDA) [13]: exacerbated
- LVEF and LVFS / DOX-induced cardiac dysfunction ([1]; experiment II, DOX + Phe 280 mg/kg, BH4 14 mg/kg or SXT 16 g/kg vs DOX group): lower
- DOX-induced increases in serum levels of BNP, CK, LDH, ALT and AST [2, 16]: largely promoted
- serum phenylalanine concentration ([14]; experiment II, DOX + phenylalanine 280 mg/kg, BH4 14 mg/kg or SXT 16 g/kg): 100.715 µM
- increase in serum phenylalanine levels ([14]; oral phenylalanine, compared to the DOX group): 16.92%
- DOX-induced cardiac injury and collagen accumulation (H&E and Masson) [3, 16]: exacerbated
